From patent US20220162182A1, “KINASE INHIBITOR COMPOUNDS AND COMPOSITIONS AND METHODS OF USE” (ICAHN SCHOOL OF MEDICINE AT MOUNT SINAI, priority 2018, published 2022) come the findings set out here.

Structures are written as SMILES. “And” between values parts separate entries of the source, which are not always exact repeats. Equal entries are not always repeated.

The first assay has as its target T1, DYRK1A (Homo sapiens, UniProt Q13627).
T1 construct: purchased DiscoverX
The assay can be described thus: KINOMEscan DYRK1A binding assay (DiscoverX), Kd determination. To be noted: eleven serial three fold dilutions, highest concentration 60 μM, several values in a cell = repeat determinations. How it is done:
Compounds were tested for DYRK1A binding activity at DiscoverX. DiscoverX uses proprietary KINOMEscan® Assay (Fabian et al., “A Small Molecule-kinase Interaction Map for Clinical Kinase Inhibitors,” Nat. Biotechnol. 23(3):329-336 (2005), which is hereby incorporated by reference in its entirety). Compounds were screened for DYRK1A activity at a single concentration of 3 μM in duplicates. Similarly, the dissociation constant Kd of the hit compounds from the initial screening was determined at DiscoverX using their proprietary KINOMEscan® Assay. Kd values are determined using eleven serial three fold dilutions with the highest concentration of 60 μM.
For the compound `O=c1[nH]c2ccc(-c3cncc(NCc4cccc5ccccc45)c3)cc2[nH]1` [Compound 31d, 5-(5-((Naphthalen-1-ylmethyl)amino)pyridin-3-yl)-1H-benzo[d]imidazol-2(3H)-one], the Kd (commonly the equilibrium constant for the complex coming apart) worked out at 28 nM. The same measure, in the same setting: in the case of `O=c1[nH]c2ccc(-c3cncc(NCc4ccc(F)cc4)c3)cc2[nH]1` [Compound 13b, 5-(5-((4-Fluorobenzyl)amino)pyridin-3-yl)-1H-benzo[d]imidazol-2(3H)-one] it was 2.9 nM and 1.8 nM; in that of `O=c1[nH]c2ccc(-c3cncc(NCc4ccncc4)c3)cc2[nH]1` [Compound 31c, 5-(5-((Pyridin-4-ylmethyl)amino)pyridin-3-yl)-1H-benzo[d]imidazol-2(3H)-one], 3.9 nM; in that of `O=c1[nH]c2ccc(-c3cncc(NCc4ccccn4)c3)cc2[nH]1` [Compound 31a, 5-(5-((Pyridin-2-ylmethyl)amino)pyridin-3-yl)-1H-benzo[d]imidazol-2(3H)-one], 1.2 nM.

Take `O=c1[nH]c2ccc(-c3ccc(NCc4ccc(F)cc4)nc3)cc2[nH]1` [Compound 11b, 5-(6-((4-Fluorobenzyl)amino)pyridin-3-yl)-1H-benzo[d]imidazol-2(3H)-one]: the Kd is 580 nM and 510 nM. `NC(=O)c1ccc(CNc2cncc(-c3ccc4[nH]c(=O)[nH]c4c3)c2)cc1` [Compound 33b, 4-(((5-(2-Oxo-2,3-dihydro-1H-benzo[d]imidazol-5-yl)pyridin-3-yl)amino)methyl)benzamide] displayed a Kd of 14 nM.

In turn, `O=c1[nH]c2ccc(-c3cncc(NCc4ccc5ccccc5c4)c3)cc2[nH]1` [Compound 31e, 5-(5-((Naphthalen-2-ylmethyl)amino)pyridin-3-yl)-1H-benzo[d]imidazol-2(3H)-one] registered a Kd of 100 nM. `N#Cc1cccc(CNc2cncc(-c3ccc4[nH]c(=O)[nH]c4c3)c2)c1` [Compound 30f, 3-(((5-(2-Oxo-2,3-dihydro-1H-benzo[d]imidazol-5-yl)pyridin-3-yl)amino)methyl)benzonitrile]: binding was characterised by a dissociation constant (Kd) of 5.8 nM. `O=c1[nH]c2ccc(-c3cncc(NCCCc4ccccc4)c3)cc2[nH]1` [Compound 30p, 5-(5-((3-Phenylpropyl)amino)pyridin-3-yl)-1H-benzo[d]imidazol-2(3H)-one] had a Kd of 15 nM. As for `Cc1ncc(-c2ccc3[nH]c(=O)[nH]c3c2)cc1NCc1ccc(F)cc1` [Compound 13d, 5-(5-((4-Fluorobenzyl)amino)-6-methylpyridin-3-yl)-1H-benzo[d]imidazol-2(3H)-one], the affinity, expressed as Kd, was 240 nM. `O=c1[nH]c2ccc(-c3cncc(NCc4cccnc4)c3)cc2[nH]1` [Compound 31b, 5-(5-((Pyridin-3-ylmethyl)amino)pyridin-3-yl)-1H-benzo[d]imidazol-2(3H)-one] gave a Kd of 2.1 nM.

Compound `O=c1[nH]c2ccc(-c3cncc(NCc4ccc(Cl)cc4)c3)cc2[nH]1` [Compound 30e, 5-(5-((4-Chlorobenzyl)amino)pyridin-3-yl)-1H-benzo[d]imidazol-2(3H)-one] showed a Kd of 23 nM. On to `O=c1[nH]c2ccc(-c3cncc(NCc4ccccc4)c3)cc2[nH]1` [Compound 13a, 5-(5-(Benzylamino)pyridin-3-yl)-1H-benzo[d]imidazol-2(3H)-one], for which the Kd was 2.3 nM and 2.9 nM and 1.1 nM. `Cn1c(=O)[nH]c2ccc(-c3cncc(NCc4ccccc4Cl)c3)cc21` [Compound 30r, 6-(5-((2-Chlorobenzyl)amino)pyridin-3-yl)-1-methyl-1H-benzo[d]imidazol-2(3H)-one] registered a Kd of 1.3 nM.

In the case of `O=c1[nH]c2ccc(-c3cncc(NCCc4ccccc4)c3)cc2[nH]1` [Compound 30k, 5-(5-(Phenethylamino)pyridin-3-yl)-1H-benzo[d]imidazol-2(3H)-one], binding was put at a Kd of 4.3 nM. Compound `C[C@@H](Nc1cncc(-c2ccc3[nH]c(=O)[nH]c3c2)c1)c1ccccc1` [Compound 68a, (R)-5-(5-((1-Phenylethyl)amino)pyridin-3-yl)-1H-benzo[d]imidazol-2(3H)-one] registered a Kd of 0.59 nM.

`C[C@H](Nc1cncc(-c2ccc3[nH]c(=O)[nH]c3c2)c1)c1ccccc1` [Compound 68b, (S)-5-(5-((1-Phenylethyl)amino)pyridin-3-yl)-1H-benzo[d]imidazol-2(3H)-one] showed a Kd of 7.5 nM. As to `O=c1[nH]c2ccc(-c3ccc(NCc4ccccc4)nc3)cc2[nH]1` [Compound 11a, 5-(6-(Benzylamino)pyridin-3-yl)-1H-benzo[d]imidazol-2(3H)-one], binding was put at a Kd of 300 nM.

`O=c1[nH]c2ccc(-c3cncc(NCc4ccc(-c5ccccc5)cc4)c3)cc2[nH]1` [Compound 30h, 5-(5-(([1,1′-Biphenyl]-4-ylmethyl)amino)pyridin-3-yl)-1H-benzo[d]imidazol-2(3H)-one] had a Kd of 1200 nM.

In turn, `Cc1ncc(-c2ccc3[nH]c(=O)[nH]c3c2)cc1NCc1ccccc1` [Compound 13c, 5-(5-(Benzylamino)-6-methylpyridin-3-yl)-1H-benzo[d]imidazol-2(3H)-one] displayed a Kd of 140 nM. For the compound `O=C1Cc2cc(-c3cncc(NCc4ccccc4)c3)ccc2N1` [Compound 13e, 5-(5-(Benzylamino)pyridin-3-yl)indolin-2-one], the Kd was 1.3 nM and 1.9 nM. Still for that read-out and setting: under `Cn1c(=O)[nH]c2cc(-c3cncc(NCc4ccccc4)c3)ccc21` [Compound 12c, 5-(5-(Benzylamino)pyridin-3-yl)-1-methyl-1H-benzo[d]imidazol-2(3H)-one] stands 2000 nM; under `N[C@H](Cc1ccccc1)c1cncc(-c2ccc3[nH]c(=O)[nH]c3c2)c1` [Compound 65a, (R)-5-(5-(1-Amino-2-phenylethyl)pyridin-3-yl)-1H-benzo[d]imidazol-2(3H)-one], 3.2 nM; under `CC(Nc1cncc(-c2ccc3[nH]c(=O)n(C)c3c2)c1)c1ccccc1` (centres unmarked) [Compound 30n, 1-Methyl-6-(5-((1-phenylethyl)amino)pyridin-3-yl)-1H-benzo[d]imidazol-2(3H)-one], 0.81 nM. For the compound `O=c1[nH]c2ccc(-c3cncc(NCc4cccc(F)c4)c3)cc2[nH]1` [Compound 30b, 5-(5-((3-Fluorobenzyl)amino)pyridin-3-yl)-1H-benzo[d]imidazol-2(3H)-one], binding was put at a Kd of 1.2 nM.

Compound `O=c1[nH]c2ccc(-c3cncc(NCc4ccccc4F)c3)cc2[nH]1` [Compound 30a, 5-(5-((2-Fluorobenzyl)amino)pyridin-3-yl)-1H-benzo[d]imidazol-2(3H)-one] had a Kd of 1.2 nM. Take `NC(=O)c1cccc(CNc2cncc(-c3ccc4[nH]c(=O)[nH]c4c3)c2)c1` [Compound 33a, 3-(((5-(2-Oxo-2,3-dihydro-1H-benzo[d]imidazol-5-yl)pyridin-3-yl)amino)methyl)benzamide]: binding was put at a Kd of 9.9 nM. For `N[C@@H](Cc1ccccc1)c1cncc(-c2ccc3[nH]c(=O)[nH]c3c2)c1` [Compound 65b, (S)-5-(5-(1-Amino-2-phenylethyl)pyridin-3-yl)-1H-benzo[d]imidazol-2(3H)-one], binding was characterised by a dissociation constant (Kd) of 15 nM. On the same count and under the same terms, in the case of `O=c1[nH]c2ccc(-c3ccc(NCc4ccc(F)cc4)cn3)cc2[nH]1` [Compound 11c, 5-(5-((4-Fluorobenzyl)amino)pyridin-2-yl)-1H-benzo[d]imidazol-2(3H)-one] it was 6000 nM. As for `O=c1[nH]c2ccc(-c3cncc(NCc4ccccc4Cl)c3)cc2[nH]1` [Compound 30c, 5-(5-((2-Chlorobenzyl)amino)pyridin-3-yl)-1H-benzo[d]imidazol-2(3H)-one], binding was characterised by a dissociation constant (Kd) of 1.3 nM.

As for `Cn1c(=O)[nH]c2ccc(-c3cncc(NCc4ccccc4)c3)cc21` [Compound 12b, 6-(5-(Benzylamino)pyridin-3-yl)-1-methyl-1H-benzo[d]imidazol-2(3H)-one], the Kd was 0.82 nM and 1.6 nM. As to `N#Cc1ccc(CNc2cncc(-c3ccc4[nH]c(=O)[nH]c4c3)c2)cc1` [Compound 30g, 4-(((5-(2-Oxo-2,3-dihydro-1H-benzo[d]imidazol-5-yl)pyridin-3-yl)amino)methyl)benzonitrile], the Kd came out at 31 nM. Turning to `CC(Nc1cncc(-c2ccc3[nH]c(=O)[nH]c3c2)c1)c1ccccc1` (centres unmarked) [Compound 30j, 5-(5-((1-Phenylethyl)amino)pyridin-3-yl)-1H-benzo[d]imidazol-2(3H)-one], the Kd was 0.71 nM and 1.1 nM. The compound `Cn1c(=O)[nH]c2ccc(-c3cncc(NCc4ccccc4F)c3)cc21` [Compound 30q, 6-(5-((2-Fluorobenzyl)amino)pyridin-3-yl)-1-methyl-1H-benzo[d]imidazol-2(3H)-one] returned a Kd of 0.86 nM.

For the next assay, the target named is T2, DYRK1/DYRK1A (Homo sapiens, UniProt Q13627).
T2 construct: purchased Reaction Biology Corp
The assay can be described thus: DYRK1/DYRK1A IC50 assay (Reaction Biology Corp.). It is filed as biochemical. Conditions: DYRK1/DYRK1A assay from Reaction Biology Corp.
As for `O=c1[nH]c2ccc(-c3cncc(NCCCc4ccccc4)c3)cc2[nH]1` [Compound 30p, 5-(5-((3-Phenylpropyl)amino)pyridin-3-yl)-1H-benzo[d]imidazol-2(3H)-one], the IC50 (usually the concentration at which inhibition is half-maximal) was 1.83 nM. The compound `Cn1c(=O)[nH]c2ccc(-c3cncc(NCc4ccccc4Cl)c3)cc21` [Compound 30r, 6-(5-((2-Chlorobenzyl)amino)pyridin-3-yl)-1-methyl-1H-benzo[d]imidazol-2(3H)-one] registered an IC50 of 0.1 nM. In turn, `C[C@@H](Nc1cncc(-c2ccc3[nH]c(=O)[nH]c3c2)c1)c1ccccc1` [Compound 68a, (R)-5-(5-((1-Phenylethyl)amino)pyridin-3-yl)-1H-benzo[d]imidazol-2(3H)-one] showed an IC50 of 0.21 nM.

`C[C@H](Nc1cncc(-c2ccc3[nH]c(=O)[nH]c3c2)c1)c1ccccc1` [Compound 68b, (S)-5-(5-((1-Phenylethyl)amino)pyridin-3-yl)-1H-benzo[d]imidazol-2(3H)-one]: the IC50 came to 2.18 nM. `N[C@H](Cc1ccccc1)c1cncc(-c2ccc3[nH]c(=O)[nH]c3c2)c1` [Compound 65a, (R)-5-(5-(1-Amino-2-phenylethyl)pyridin-3-yl)-1H-benzo[d]imidazol-2(3H)-one] showed a 50% inhibitory concentration (IC50) of 3.98 nM. `N[C@@H](Cc1ccccc1)c1cncc(-c2ccc3[nH]c(=O)[nH]c3c2)c1` [Compound 65b, (S)-5-(5-(1-Amino-2-phenylethyl)pyridin-3-yl)-1H-benzo[d]imidazol-2(3H)-one]: half-maximal inhibition (IC50) required 23.2 nM. The compound `CC(C)n1c(=O)[nH]c2ccc(-c3cncc(NCc4ccccc4)c3)cc21` [Compound 61b, 6-(5-(Benzylamino)pyridin-3-yl)-1-isopropyl-1H-benzo[d]imidazol-2(3H)-one] gave an IC50 of 13.8 nM. The compound `Cn1c(=O)[nH]c2ccc(-c3cncc(NCc4ccccc4F)c3)cc21` [Compound 30q, 6-(5-((2-Fluorobenzyl)amino)pyridin-3-yl)-1-methyl-1H-benzo[d]imidazol-2(3H)-one] had an IC50 of 0.3 nM. Still for that read-out and setting: in the case of `O=c1[nH]c2ccc(-c3cc(NCc4ccccc4)c[n+]([O-])c3)cc2[nH]1` [Compound 69b, 3-(Benzylamino)-5-(2-oxo-2,3-dihydro-1H-benzo[d]imidazol-5-yl)pyridine 1-oxide] it was 45.2 nM; in that of `O=c1[nH]c2ccc(-c3cncc(NCc4ccccc4)c3)cc2n1-c1cccnc1` [Compound 61g, 6-(5-(Benzylamino)pyridin-3-yl)-1-(pyridin-3-yl)-1H-benzo[d]imidazol-2(3H)-one], 6.47 nM.
